Assay results from article PMC7842926, “Synergistic effect and ultrastructural changes in Trypanosoma cruzi caused by isoobtusilactone A in short exposure of time” (PLoS ONE, 2021).
Read-outs that look alike come from different tables or passages of the source. Where a SMILES comes first, the peptide text is derived from it. The star is where a group is joined. Cbz = O=C(OCc1ccccc1)*

Assays:
[1] = system: amastigotes of T. cruzi (Dm28c); experiment: Antiproliferative assay on intracellular amastigotes in Vero host cells; format: cell-based, Trypanosoma cruzi; settings: for IC50: Trypanosoma cruzi, Vero, 24 hours of treatment, confidence interval in brackets, read-out: Amastigotes (Dm28c) IC50 (CI)
Description: To determine the antiproliferative effect of butanolides on intracellular amastigote forms (Dm28c), Vero cells were used as host cells. Vero cells were cultured in DMEM and maintained in a CO2 atmosphere at 37°C.
After 4 h of incubation for adherence and infection, the cells were washed with 1x phosphate buffered saline (PBS) and then incubated in DMEM for 20 h to allow differentiation of internalized trypomastigotes into amastigotes.
Vero cells infected with amastigotes were incubated for 4 or 24 h with the compounds (4 concentrations within the range 4–200 μM) in DMEM. After incubation, the cells were washed, fixed in methanol, stained with 4',6-Diamidino-2-phenylindole (DAPI), and photographed using Leica DMI 6000-B fluorescence microscope. The photos obtained were analyzed using the software ImageJ version 1.5 for quantification of total Vero cells and determination of the percentage of infected cells and number of amastigotes per cell. The 50% inhibitory concentration (IC50) was calculated using the infectivity index (II) described by Ceole et al.. DMSO (1%) treatment served as negative control and benznidazole treatment served as positive control.
(§1) The 50% cytotoxic concentration (CC50), x % inhibitory concentration (ICx = IC25, IC50, IC75, or IC90), and 50% lethal concentration (LC50) values were obtained from the percentage of inhibition/death versus log concentration of each compound, by nonlinear regression with variable slope and automatic withdrawal of outliers with ROUT coefficient (Q = 5). […] Graphpad Prism software version 7.04 was used for all regressions.

[2] = Cytotoxicity assay (MTT); format: cell-based; settings: African green monkey (Cercopithecus aethiops), Vero cells (CCL-81); for CC50 at 4 h: 4 h of treatment, read-out: Vero cells (CCL-81) CC50 - 4h (CI); for CC50 at 24 h: 24 hours of treatment, confidence interval in brackets, read-out: Vero cells (CCL-81) CC50 (CI)
Description: Vero cells (CCL-81) isolated from the kidney of the African green monkey Cercopithecus aethiops were purchased from ATCC® (Washington DC, USA). The cells were inoculated in 200 μL of Dulbecco’s modified Eagle (DMEM) medium in 96-well plates at a concentration of 2 × 10^4 cells/well and incubated at 37°C for 24 h for adherence of the cells. Six different concentrations of the compounds (12 to 900 μM for butanolides, and 200 to 1,600 μM for benznidazole) were added to the wells. After 4 or 24 h of treatment, the cells were washed and cell viability was assessed using MTT (3-(4,5-Dimethylthiazol-2-yl)-2,5-Diphenyltetrazolium Bromide) assay (2 mg/mL). After 4 h of incubation at 37°C in a CO2 atmosphere, the wells were washed and 100% DMSO was added to solubilize the formazan crystals. The absorbance was measured at 570 nm using an ELISA plate reader (Biotek Model EL-800, VT, USA). DMSO (1%) treatment served as negative control and benznidazole treatment served as positive control.
as §1

[3] = system: epimastigotes of T. cruzi (Dm28c, TcI); experiment: Epimastigote cell viability assay (MTS/PMS), Dm28c; format: cell-based, Trypanosoma cruzi; settings: for activity at concentrations below 50 μg/mL in epimastigotes: 72 h of treatment, Dm28c; for IC50: Trypanosoma cruzi, read-out: Epimastigotes (Dm28c) IC50 - 4h (CI); for SI (selectivity index): Vero CC50 4 h versus epimastigote Dm28c IC50 4 h
Description: (§2) Epimastigote forms of three strains of T. cruzi, including Dm28c (TcI), CL Brener (TcVI), and Y strain (TcII), were maintained in liver infusion tryptose (LIT) medium supplemented with 10% fetal bovine serum at 28°C [16] were kindly provided by Oswaldo Cruz Institute/Fiocruz. For the experiments, exponential phase cultures were used. All assays were performed in triplicates in 96-well plates.
The effect of the isolated compounds on the viability of epimastigote forms of Dm28c strain was determined by MTS [3-(4,5-dimethylthiazol-2-yl)-5-(3-carboxymethoxyphenyl)-2-(4-sulfophenyl)-2H-tetrazolium bromide] with PMS (5-methyl-phenazinium methyl sulfate) colorimetric assay, as described by Nunes et al.. […]
(§3) The absorbance of the formazan was measured at 490 nm using a microplate reader (Asys Expert Plus -Biochrom). In parallel, we determined the effect of 1% DMSO (negative control) and benznidazole (positive control) on the viability of epimastigotes and a replicate of each treatment was performed by fixing the epimastigotes with 4% paraformaldehyde prior to the addition of MTS/PMS (basal absorbance control).
as §1

[4] = system: trypomastigote forms of the parasite (Dm28c); experiment: microbe, parasite or virus in culture; format: cell-based; settings: for LC50: Trypanosoma cruzi, 4 h of treatment, read-out: LC50 against trypomastigote forms (Dm28c); for SI (selectivity index): trypomastigotes Dm28c, 4 h, Vero cells
Description: Cell-derived trypomastigotes (Dm28c) were obtained from the supernatant of infected Vero cell cultures. Vero cells (9 × 10^5 cells/mL) and trypomastigotes were seeded at a ratio of 1:10 into culture bottles (75 cm^2) containing DMEM. After 4 h of incubation, the bottles were washed to remove unadhered trypomastigotes and incubated for another 96 h under CO2 atmosphere at 37°C. After 96 h of incubation, new trypomastigote forms were collected from the supernatant and used to perform the assays.
The lysis assay was performed in 96-well plates in technical triplicates (4 concentrations within the range 4–250 μM for butanolides and 200–1,600 μM for benznidazole), and the trypomastigotes (1 x 10^6 parasites/well) were incubated in 200 μL of DMEM (supplemented with 10% FBS, 100 μg/mL streptomycin, and 100 IU/mL penicillin) with the compounds at 37°C for 4 h. The test, negative control (1% DMSO), and positive control (benznidazole) parasites were fixed and counted in Neubauer's chamber.
as §1

[5] = system: epimastigote forms of CL Brener (TcVI); experiment: Epimastigote cell viability assay (MTS/PMS), CL Brener; format: cell-based, Trypanosoma cruzi; settings: for IC50: Trypanosoma cruzi, 4 h of treatment, read-out: IC50 epimastigotes strain CL Brener
Description: as §2, §3, §1

[6] = system: epimastigote forms of Y strain (TcII); experiment: Epimastigote cell viability assay (MTS/PMS), Y strain; format: cell-based, Trypanosoma cruzi; settings: for IC50: Trypanosoma cruzi, 4 h of treatment, read-out: IC50 epimastigotes strain Y
Description: as §2, §3, §1

[7] = system: trypomastigotes; settings: period of treatment 24 h; read-out: IC50 against trypomastigotes; cited from earlier work
[8] = system: amastigote forms; settings: longer treatment periods; read-out: activity against amastigote forms; cited from earlier work
[9] = system: T. cruzi; settings: cited from earlier work
[10] = system: epimastigote forms of strain Dm28c; experiment: Inhibition of metacyclogenesis; format: cell-based; settings: Trypanosoma cruzi, 2 h exposure, then 72 h in drug-free medium, p = 0.009, read-out: less trypomastigotes than control (inhibition of metacyclogenesis)
Description: After the stress, the cells were washed and incubated with TAU drug-free supplemented with 10 mM L-proline, 50 mM L-sodium glutamate, 2 mM L-sodium aspartate and 10 mM D-glucose (TAU3AAG medium) for 72 h. The total number of differentiated trypomastigotes was counted in Neubauer's chamber to assess the inhibition percentage.

[11] = system: trypomastigotes infecting Vero cells; experiment: Infectivity assay (treatment before or during infection of Vero cells); format: cell-based, Trypanosoma cruzi
Description: The trypomastigotes were treated with isoobtusilactone A (LC50/4 h of trypomastigotes) for 4 h, while the control trypomastigotes were incubated with drug-free medium for 4 h. These trypomastigotes were then seeded into 96-well plates (4 × 10^4 parasites per well) with already adhered Vero cells at a ratio of 10 parasites per host cell.
After 20 h of infection, the infected Vero cell culture with intracellular amastigotes was fixed, stained with DAPI, photographed, and analyzed as described for antiproliferative assay.
Already adhered Vero cells were incubated with recently collected trypomastigotes for 4 h in a medium containing isoobtusilactone A (LC50/4 h of amastigotes) or in a drug-free medium (negative control). After 4 h, the host cells were washed and drug-free fresh medium was added. The cells were incubated for another 20 h and then fixed, stained, photographed, and analyzed as described above.

[12] = system: amastigotes and trypomastigotes; experiment: Ultrastructural analysis by transmission and scanning electron microscopy; format: cell-based, Trypanosoma cruzi
Description: Trypomastigotes were incubated with isoobtusilactone A (LC50/4 h of trypomastigote) for 2 h. The parasites were washed with cacodylate buffer (0.1 M) and fixed in cacodylate buffer (0.1 M) containing paraformaldehyde (4%) and glutaraldehyde (2.5%). The cells were then adhered to glass cover slips previously coated with poly-L-lysine, postfixed with osmium tetroxide (1%), dehydrated with graded ethanol series, and dried using a critical point dryer (Leica CPD 300). Finally, the samples were coated with a layer of gold in a sputtering device (Leica EM ACE 200).
The cells were fixed, dehydrated, and dried following the same procedure described above. Cell membrane of the host cells was randomly removed with the aid of an adhesive tape and the resulting samples were coated with a layer of gold in a sputtering device (Leica EM ACE 200).
Trypomastigotes were treated following the same procedure as described for scanning microscopy. After treatment, the cells were washed with cacodylate buffer (0.1 M) and fixed in cacodylate buffer (0.1 M) containing paraformaldehyde (4%) and glutaraldehyde (2.5%).
All samples were postfixed in osmium tetroxide (1%), dehydrated with acetone series, and embedded in EMbed 812® resin. […]

[13] = system: amastigotes of T. cruzi (Dm28c); design: method as in PMID 32327956; settings: 24 h of treatment; cited from earlier work
[14] = system: Vero cells (CCL-81); design: method as in Nunes et al., 2020; settings: 24 hours of treatment; confidence interval in brackets; ref Nunes et al., 2020; read-out: Vero cells (CCL-81) CC50 (CI); cited from earlier work
[15] = system: Hep G2 cells; design: method as in PMID 22400995, PMID 18489163, PMID 17321026; settings: cited from earlier work
[16] = system: epimastigotes of T. cruzi (Dm28c, TcI); design: method as in PMID 32327956; settings: 24 h of treatment; read-out: IC50 epimastigote forms of Dm28c strain; cited from earlier work
[17] = system: trypomastigotes; settings: concentration greater than 40 μM, exposure time of 18 hours; cited from earlier work
[18] = Vero CC50 versus amastigote IC50, 24 hours
[19] = 4 h of treatment, Na = not active
[20] = treatment simultaneous to the infection, LC50/4 h of amastigote (20.75 μM)
[21] = trypomastigotes treated before infection, LC50/4 h of trypomastigote

Compound: CCCCCCCCCCCCC/C=C1\CC(CO)OC1=O (stereo not drawn) [Majoranolide, majoranolide]
- IC50 [1]: 21.9 µM
- SI (selectivity index) [1, 18]: 7.57
- CC50 at 4 h [2]: 558 µM
- CC50 at 24 h [2]: 166 µM
- activity at concentrations below 50 μg/mL in epimastigotes [3]: exhibited activity
- IC50 [3, 19]: > 250 µM
- SI (selectivity index) [3]: 0.94
- LC50 [4]: 71.7 µM
- SI (selectivity index) [4]: 7.77

Compound: O=C(Cn1ccnc1[N+](=O)[O-])NCc1ccccc1 [Benznidazole, benznidazole, reference compound]
- IC50 [1]: 6.57 µM
- SI (selectivity index) [1, 18]: 174
- CC50 at 4 h [2]: > 1600 µM
- CC50 at 24 h [2]: 1140 µM
- IC50 [3, 19]: > 1600 µM
- IC50 [5]: > 1600 µM
- IC50 [6]: > 1600 µM

Compound: CCCCCCCCCCCCCCC/C=C(/C(=O)OC)[C@H](O)C(C)=O [secosubamolide A]
- IC50 [7]: 12.5 µM
- IC50 [8]: 12.3 µM

Compound: CC(C)[C@H](NC(=O)OCc1ccccc1)C(=O)N[C@H](C=O)Cc1ccccc1 [MDL28170] (Cbz-Val-Phe-aldehyde)
- inhibition of differentiation ([9]; 50 μM, 96-hour treatment): ~50%

Compound: C=C1OC(=O)/C(=C/CCCCCCCCCCCCC)[C@@H]1O [Isoobtusilactone A, isoobtusilactone A]
- IC50 [1]: 23 µM
- SI (selectivity index) [1, 18]: 6.81
- SI (selectivity index) ([1]; amastigotes, 4 h, Vero cells): 17.88
- CC50 at 4 h [2]: 371 µM
- activity at concentrations below 50 μg/mL in epimastigotes [3]: exhibited activity
- IC50 [3, 19]: 10.1 µM
- SI (selectivity index) [3]: 36.7
- IC50 [5]: 61.7 µM
- SI (selectivity index) ([5]; epimastigotes strain CL Brener, 4 h, Vero cells): 6.0
- IC50 [6]: 32.3 µM
- SI (selectivity index) ([6]; epimastigotes strain Y, 4 h, Vero cells): 11.4
- LC50 [4]: 30.1 µM
- SI (selectivity index) [4]: 12.34
- inhibition at 2.75 µM [10]: 43%
- reduction in the number of amastigotes per cell [11, 20]: 65%
- reduction in the number of infected cells [11, 20]: 43%
- reduction in the number of amastigotes per cell [11, 21]: ~40%
- reduction in the number of infected cells [11, 21]: 20%
- ultrastructure of treated intracellular amastigotes (TEM) ([12]; LC50/4 h of amastigotes, 4 h): strong and acute damage to the unique mitochondria
- ultrastructure of treated trypomastigotes (TEM) ([12]; LC50/4 h of trypomastigote, 2 h): swelling and loss of internal content of mitochondria
- inhibition of growth of amastigote forms [13]: more than 70%
- CC50 [14]: 156 µM
- effect on tumor cells [15]: inducing apoptosis

Compound: CC(C)=CCCC(C)=CC=O (mixture of isomers) [Citral]
- inhibition of metacyclogenesis ([9]; 30 μg/mL): 54%

Compound: CCCCCCCCCCCCC/C=C1\C(=O)O[C@@H](C)[C@H]1O [Epilitsenolide C1, epilitsenolide C1]
- Epimastigotes (Dm28c) IC50 - 4h (CI) [3, 19]: did not show activity
- activity at concentrations below 50 μg/mL in epimastigotes [3]: exhibited activity
- IC50 [16]: 7.77 µM

Compound: Oc1ccc(/C=C/c2cc(O)cc(O)c2)cc1 [resveratrol]
- reduction of infection [17]: by half

Compound: isolinderanolide D
- IC50 [7]: 12.9 µM
- IC50 [8]: 25.3 µM

Compound: C=C1OC(=O)/C(=C\CCCCCCCCCCCCCCC)[C@H]1O [isolinderanolide E]
- IC50 [7]: 29.9 µM
- IC50 [8]: 10.1 µM
